Laboratory results: patent publication US20230348454A1, “COMPOUNDS AS MODULATORS OF BIS-PHOSPHOGLYCERATE MUTASE FOR THE TREATMENT OF SICKLE CELL DISEASE” (Genzyme Corporation, priority 2020, published 2023)

Target: T1, hBPGM (Homo sapiens, UniProt P07738)
T1 sequence (P07738 1-259): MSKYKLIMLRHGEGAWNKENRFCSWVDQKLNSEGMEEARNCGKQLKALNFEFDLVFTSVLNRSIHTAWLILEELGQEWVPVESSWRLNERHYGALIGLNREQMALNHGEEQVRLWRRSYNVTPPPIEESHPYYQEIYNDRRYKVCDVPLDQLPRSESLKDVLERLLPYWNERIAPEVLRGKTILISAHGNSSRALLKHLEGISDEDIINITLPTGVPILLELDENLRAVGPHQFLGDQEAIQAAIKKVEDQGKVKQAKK
Assay: BPGM synthase assay
Type: biochemical
Settings: Table 6; read-out: huBPGM: synthase Enzyme IC50
Experimental: The following materials were used in this assay: deionized water; Bisphosphoglycerate mutase (BPGM; Standard Buffer: 50 mM Tris, 0.01% Tween 20, pH 7.4); BPGM Reaction Buffer (50 mM Tris, 0.01% Tween 20, 3.23 mM KH2PO4, pH 7.4); dithiothreitol (DTT; Stock solution: 100 mM in Standard Buffer); 384-Well Black Assay Plate (Corning, P/N 3575); DMSO; BPGM Stock Solution (500 nM in BPGM Standard Buffer); Glyceraldehyde 3-phosphate dehydrogenase (GAPDH; Stock Solution: 40 U/mL in 20 mM Tris-HCL Buffer with 20% Glycerol, 1 mM EDTA, 1 mM DTT); Glyceraldehyde 3-phosphate (GAP; Stock Solution: 20 mM in BPGM Standard Buffer); 3-PG Stock Solution (500 μM in BPGM Standard Buffer); Nicotinamide adenine dinucleotide (NAD; Stock Solution: 50 mM in BPGM Standard Buffer); Koningic Acid (1 mM Stock in DMSO); Resazurin Stock Solution (10 mM in DMSO); Diaphorase Stock Solution (40 U/mL in BPGM Standard Buffer); DTT Reaction Buffer (1 mM DTT in BPGM Reaction Buffer); Enzyme Solution (5 nM BPGM, 0.4 U/mL GAPDH in DTT Reaction Buffer); GAPDH Solution (0.4 U/mL GAPDH in DTT Reaction Buffer); Substrate Solution (2 mM NAD, 20 μM 3PG, 800 μM GAP in DTT Reaction Buffer); and Resazurin Solution (5 U/mL Diaphorase, 500 μM Resazurin in BPGM Standard Buffer).
To the assay plate was added Enzyme Solution (20 uL) to columns 2-22 and 24 of the assay plate. To columns 1 and 23 was added GAPDH Solution (20 uL). A separate compound plate was prepared at the desired concentrations and all wells were normalized with 5% DMSO. The compound plate was incubated for 30 minutes at RT. Next, the substrate solution (20 μL) was dispensed to all reaction wells and the plate was incubated for 60 minutes at RT. Koningic acid (1 μL) was added and the plate was incubated for 10 minutes at RT. During this time period, the NADH fluorescence was read at ex: 360/em: 460. Next, Resazurin Solution (10 μL) was added to all reaction wells and the plate was incubated for 30 minutes at RT. The resorufin fluorescence was then read at ex:544/em:590.

Cc1nc(COc2cccnn2)sc1-c1nc(-c2cc(F)c(O)c(F)c2F)cs1 [Example 77]
IC50: 1300 nM

Cc1nc(COCC(C)(C)O)sc1-c1nc(-c2cc(F)c3nn[nH]c3c2)cs1 [Example 226]
IC50: 82 nM

Cc1nc(COc2ncccn2)sc1-c1cccc(-c2cc(O)c(C#N)c(F)c2)n1 [Example 74]
IC50: 290 nM

Cc1nc(COc2ncccn2)sc1-c1cccc(-c2cc(F)c(O)c(C#N)c2F)n1 [Example 231]
IC50: 87 nM

COC(=O)NCc1nc(C)c(-c2csc(-c3cc(O)c(NS(C)(=O)=O)cc3F)n2)s1 [Example 183]
IC50: > 25000 nM

COC(=O)NCc1nc(C)c(-c2csc(-c3cc(F)c4[nH]nnc4c3F)n2)s1 [Example 67]
IC50: 50 nM

Cc1nc(COc2ccccn2)sc1-c1csc(-c2cc(F)c(O)c(F)c2)c1 [Example 198]
IC50: 5200 nM

COC(=O)NCc1nc(C)c(-c2csc(-c3cc(O)c(-c4nnn[nH]4)cc3F)c2)s1 [Example 184]
IC50: 250 nM

Cc1nc(COC(=O)N2CCC(O)C2)sc1-c1cccc(-c2cc(F)c3nn[nH]c3c2F)c1 (centres unmarked) [Example 62]
IC50: 350 nM

Cc1nc(COc2ncccn2)sc1-c1cccc(-c2ccc3[nH]c(=O)[nH]c3c2)n1 [Example 128]
IC50: 6700 nM

Cc1nc(COc2ncccn2)sc1-c1ccnc(-c2cc(F)c(O)c(C#N)c2)n1 [Example 69]
IC50: 79 nM

Cc1nc(COc2ncccn2)sc1-c1cccc(-c2ccn3c(O)nnc3c2)n1 [Example 149]
IC50: 4500 nM

Cc1nc(CO)sc1-c1csc(-c2cc(F)c(O)c(F)c2F)n1 [Example 116]
IC50: 6500 nM

Cc1nc(CNC(=O)N(C)C)sc1-c1csc(-c2cc(F)c3[nH]nnc3c2)n1 [Example 107]
IC50: 3200 nM

Cc1nc(COc2nccc(C(=O)O)n2)sc1-c1cccc(-c2cc(F)c3nn[nH]c3c2)n1 [Example 118]
IC50: 28 nM

Cc1nc(COCC2(O)CC2)sc1-c1cccc(-c2cc(F)c3nn[nH]c3c2F)n1 [Example 238]
IC50: 49 nM

Cc1nc(COC(=O)N2CCC(O)CC2)sc1-c1cccc(-c2cc(F)c3nn[nH]c3c2F)n1 [Example 47]
IC50: 25 nM

Cc1nc(CNC(=O)N2CCC(O)C2)sc1-c1csc(-c2cc(F)c3[nH]nnc3c2F)n1 (centres unmarked) [Example 80]
IC50: 2800 nM

Cc1nc(CNc2ncc(C(F)(F)F)cn2)sc1-c1csc(-c2cc(F)c(O)c(F)c2F)n1 [Example 84]
IC50: > 25000 nM

Cc1nc(COCC(=O)N2CCC(O)C2)sc1-c1csc(-c2cc(F)c(O)c(F)c2F)n1 (centres unmarked) [Example 124]
IC50: 6300 nM

Cc1nc(C)c(-c2csc(-c3cc(F)c4[nH]nnc4c3)n2)s1 [Example 114]
IC50: 1200 nM

Cc1nc(CNC(=O)C2CCN(C)CC2)sc1-c1csc(-c2cc(F)c(O)c(F)c2F)n1 [Example 93]
IC50: 9000 nM

Cc1nc(C)c(-c2csc(-c3cc(F)c(O)c(F)c3F)n2)s1 [Example 119]
IC50: 2900 nM

Cc1nc(COCC(=O)C2CCNCC2)sc1-c1csc(-c2cc(F)c(O)c(F)c2F)n1 [Example 94]
IC50: > 25000 nM

Cc1nc(COCC(=O)N2CCNCC2)sc1-c1csc(-c2cc(F)c(O)c(F)c2F)n1 [Example 115]
IC50: 4400 nM

Cc1nc(COc2cccnn2)sc1-c1cccc(-c2cc(F)c3nn[nH]c3c2F)n1 [Example 88]
IC50: 24 nM

Cc1nc(COc2ncccn2)sc1-c1nc(-c2cc(F)c(O)c(C#N)c2)cs1 [Example 72]
IC50: 510 nM

Cc1nc(COc2ncccn2)sc1-c1ccnc(-c2cc(F)c(O)c(C#N)c2)c1 [Example 58]
IC50: 1900 nM

Cc1nc(CNC(=O)c2ccn(C)n2)sc1-c1csc(-c2cc(F)c(O)c(F)c2F)n1 [Example 106]
IC50: 330 nM

Cc1nc(CNC(=O)C2CN(C)C2)sc1-c1csc(-c2cc(F)c(O)c(F)c2F)n1 [Example 83]
IC50: > 25000 nM

Cc1nc(C(=O)NC2CCC(O)CC2)sc1-c1cccc(-c2cc(F)c3[nH]nnc3c2F)n1 (centres unmarked) [Example 217]
IC50: 120 nM

Cc1nc(COC(C)(C)C)sc1-c1cccc(-c2cc(F)c3nn[nH]c3c2F)n1 [Example 235]
IC50: 130 nM

Cc1nc(COCC(C)O)sc1-c1cccc(-c2cc(F)c3nn[nH]c3c2F)n1 (centres unmarked) [Example 237]
IC50: 22 nM

Cc1nc(COc2ccccn2)sc1-c1csc(-c2cc(F)c(OP(=O)(O)O)c(F)c2F)n1 [Example 81]
IC50: 3000 nM

Cc1nc(C(=O)N2CCC(O)C2)sc1-c1cccc(-c2cc(F)c3[nH]nnc3c2F)n1 (centres unmarked) [Example 25]
IC50: 4400 nM

Cc1nc(Cc2ccccn2)sc1-c1cccc(-c2ccc(C(=O)NS(=O)(=O)c3ccccc3)cc2)c1 [Example 211]
IC50: 740 nM

Cc1nc(C)c(COc2cc(F)c3nn[nH]c3c2F)s1 [Example 215]
IC50: > 25000 nM

Cc1nc(COc2ncccn2)sc1-c1cccc(-c2ccc(-c3n[nH]c(=O)o3)cc2)n1 [Example 161]
IC50: > 25000 nM

Cc1nc(COC(=O)N(C)CCN(C)C)sc1-c1cccc(-c2cc(F)c(O)c(F)c2F)n1 [Example 36]
IC50: 1300 nM

Cc1nc(CN2CCCC2=O)sc1-c1cccc(-c2cc(F)c3nn[nH]c3c2F)n1 [Example 26]
IC50: 110 nM

Cc1nc(CNCC(C)(C)C)sc1-c1cccc(-c2cc(F)c3nn[nH]c3c2F)n1 [Example 56]
IC50: 260 nM

Cc1nc(CN/C(=N/C#N)N(C)C)sc1-c1cccc(-c2cc(F)c3nn[nH]c3c2F)n1 [Example 45]
IC50: 48 nM

Cc1nc(C)c(-c2csc(-c3cc(F)c4[nH]nnc4c3F)n2)s1 [Example 86]
IC50: 140 nM

Cc1nc(COC(=O)N2CCC(O)C2)sc1-c1cccc(-c2cc(F)c3nn[nH]c3c2F)n1 (centres unmarked) [Example 85]
IC50: 21 nM

CNCc1nc(C)c(-c2cccc(-c3cc(F)c4nn[nH]c4c3F)n2)s1 [Example 63]
IC50: 1400 nM

Cc1nc(CNc2cccnn2)sc1-c1csc(-c2cc(F)c(O)c(F)c2F)n1 [Example 89]
IC50: 280 nM

Cc1nc(CNCC(=O)N(C)C)sc1-c1cccc(-c2cc(F)c3nn[nH]c3c2F)n1 [Example 53]
IC50: 890 nM

Cc1nc(C)c(-c2cnn(-c3cc(F)c4[nH]nnc4c3F)c2)s1 [Example 37]
IC50: 13000 nM

COC(=O)NCc1nc(C)c(-c2csc(-c3ccc(C4SC(=O)NC4=O)cc3)n2)s1 (centres unmarked) [Example 204]
IC50: > 25000 nM

Cc1nc(COCC(=O)N2CCC(O)C2)sc1-c1cccc(-c2cc(F)c3nn[nH]c3c2F)n1 (centres unmarked) [Example 76]
IC50: 1100 nM

Cc1nc(COc2ccccn2)sc1-c1csc(-c2cc(F)c3[nH]nnc3c2F)n1 [Example 82]
IC50: 3600 nM

Cc1nc(COCC(=O)N2CCC(O)C2)sc1-c1csc(-c2cc(F)c3[nH]nnc3c2F)n1 (centres unmarked) [Example 78]
IC50: 1500 nM

Cc1nc(CNC(=O)C(C)(C)C)sc1-c1ccnc(-c2cc(F)c3nn[nH]c3c2F)n1 [Example 223]
IC50: 840 nM

Cc1nc(COc2ncccn2)sc1-c1cccc(-c2ccc(C#N)c(O)c2F)n1 [Example 105]
IC50: 220 nM

Cc1nc(CNC(=O)c2cnn(C)c2)sc1-c1csc(-c2cc(F)c(O)c(F)c2F)n1 [Example 113]
IC50: 530 nM

Cc1nc(COc2ncccn2)sc1-c1cnn(-c2cc(F)c(O)c(F)c2F)c1 [Example 233]
IC50: 3900 nM

Cc1nc(COc2ccccn2)sc1-c1cccc(-c2cc(O)c(C#N)c(F)c2)n1 [Example 120]
IC50: 1500 nM

Cc1nc(CN/C(=N/C#N)N(C)C)sc1-c1cccc(-c2cc(F)c(O)c(F)c2F)n1 [Example 27]
IC50: 1500 nM

COC(C)(C)COCc1nc(C)c(-c2cccc(-c3cc(F)c4nn[nH]c4c3F)n2)s1 [Example 227]
IC50: 21 nM
